Patent publication US20220265629A1, “TREATMENT OF SYSTOLIC DYSFUNCTION AND HEART FAILURE WITH REDUCED EJECTION FRACTION WITH THE COMPOUND (R)-4-(1-((3-(DIFLUOROMETHYL)-1-METHYL-1H-PYRAZOL-4-YL)SULFONYL)-1-FLUOROETHYL)-N-(ISOXAZOL-3-YL)PIPERIDINE-1-CARBOXAMIDE” (MyoKardia, Inc., priority 2019, published 2022)

Test system: patients with stable HFrEF
Assay: HFrEF study Part 1 (SAD Cohorts 1 and 2): safety (TEAEs, troponin, ECG, Holter)
Format: in vivo, human
Procedure: Safety and efficacy assessments were conducted by measuring patients' vital signs and laboratory parameters; performing TTE to measure, e.g., systolic ejection time; performing electrocardiograms (e.g., 12-lead ECG), real-time ECG telemetry (e.g., at least 3-lead), and Holter ECG; and measuring levels of troponin (e.g., troponin I and/or troponin T) and […].
The following safety laboratory parameters were measured: (1) hematology parameters (CBC, including differential count, and platelet count); (2) serum chemistry parameters (e.g., sodium, potassium, chloride, bicarbonate, calcium, magnesium, urea, creatinine, ALP, ALT, AST, total bilirubin, glucose, and CPK); and (3) urinalysis parameters (e.g., pH, protein, glucose, leukocyte esterase, and blood).
Abnormal and/or rising troponin values (as per investigator's judgment and taking into account potential baseline troponin elevation frequently observed in heart failure) led to the patient being clinically evaluated for possible myocardial ischemia. […] The entire clinical context (e.g., signs, symptoms, new ECG changes, new troponin, and CK-MB abnormalities) was evaluated and correlated with any other relevant clinical findings, patient's medical history, and laboratory data to determine the clinical significance of the findings. Troponin results performed on Day 2 of Part 1 (SAD) and Day 10 of Part 2 (MAD) at a local lab were reviewed prior to the patient being discharged the next day.

## Cn1cc(S(=O)(=O)[C@@](C)(F)C2CCN(C(=O)Nc3ccon3)CC2)c(C(F)F)n1 [Compound I, (R)-4-(1-((3-(difluoromethyl)-1-methyl-1H-pyrazol-4-yl)sulfonyl)-1-fluoroethyl)-N-(isoxazol-3-yl)piperidine-1-carboxamide]
175 mg (n = 8)
  TEAE Any SOC, any PT, %: (25.0) %
  TEAE Dyspnea, %: (12.5) %
  TEAE Fatigue, %: (12.5) %
  TEAE Infusion site discomfort, %: (12.5) %
  TEAE Urinary tract infection, %: (12.5) %
350 mg (n = 8)
  TEAE Any SOC, any PT, %: (62.5) %
  TEAE Bursitis, %: (12.5) %
  TEAE Diarrhoea, %: (12.5) %
  TEAE Hypomagnesemia, %: (12.5) %
  TEAE Oral contusion, %: (12.5) %
  TEAE Proteinuria, %: (12.5) %
400 mg Split Dose (n = 4)
  TEAE Anemia, %: (25.0) %
  TEAE Any SOC, any PT, %: (75.0) %
  TEAE Neck pain, %: (25.0) %
  TEAE Orthostatic hypotension, %: (25.0) %
  TEAE Ventricular extrasystoles, %: (25.0) %
550 mg Split Dose (n = 2)
  TEAE Any SOC, any PT, %: (50.0) %
  TEAE Cardiac discomfort, %: 50.0%
  TEAE Dyspnea, %: (50.0) %
  TEAE Troponin increase, %: (50.0) %
550 mg, 24 hours post-dose, 4×ULN
  maximum troponin I level (one subject): 0.12 ng/mL
Total Active (n = 12)
  TEAE Anemia, %: (8.3) %
  TEAE Any SOC, any PT, %: (83.3) %
  TEAE Bursitis, %: (8.3) %
  TEAE Cardiac discomfort, %: (8.3) %
  TEAE Diarrhoea, %: (8.3) %
  TEAE Diverticulitis, %: (8.3)- %
  TEAE Dyspnea, %: (8.3) %
  TEAE Fatigue, %: (8.3) %
  TEAE Hypomagnesemia, %: (8.3) %
  TEAE Infusion site discomfort, %: (8.3) %
  TEAE Neck pain, %: (8.3) %
  TEAE Oral contusion, %: (8.3) %
  TEAE Orthostatic hypotension, %: (8.3) %
  TEAE Proteinuria, %: (8.3) %
  TEAE Troponin increase, %: (8.3) %
  TEAE Urinary tract infection, %: (8.3) %
  TEAE Ventricular extrasystoles, %: (8.3) %
All patients
  QTcF (study ECGs): no signal for QTcF increase
Compared to placebo
  Holter monitoring: atrial ectopy, atrial fibrillation, ventricular ectopy, NSVT runs: no signal
Doses from 175 to 550 mg
  active-treatment periods with transient troponin increase (3/30): 10%
  subjects with transient troponin increase (3/12): 25%
single-ascending doses 175 to 550 mg
  safety and tolerability: safe and generally well-tolerated
